≈ marks a conversion by molar mass, not a printed value. Where a name gives a salt, the structure may show the parent alone. Read-outs that look alike come from different tables or passages of the source.

The subject of assay [1] is Trichostrongylus colubriformis. Briefly: Activity against mature adult stages in lambs, oral treatment (Table III). Type of assay: in vivo. The following applies: 120 h, 15 mg/kg oral, read-out: Mean percentage reduction in worm burdens, T.colubriformis. The protocol:
(§1) ii. 20 Worm-free lambs were each infected with H. contortus (approximately 5,600), T. axei (approximately 9,300) and T. colubriformis (approximately 10,000) infective larvae. After 22 days, 16 lambs were treated orally with 15 mg/kg animal body weight of the 8 test compounds, i.e. 2 lambs per compound, against the mature adult stages of the worms. 27 Days after infection, all 20 lambs were killed for post-mortem worm counts and the burden of each worm species in the 16 treated animals compared with those in the remaining 4 untreated control animals.

Assay [2] concerns Trichostrongylus axei. The description is as above. Type of assay: in vivo. The note with it: 120 h, 15 mg/kg oral, read-out: Mean percentage reduction in worm burdens, T.axei. The protocol:
as §1

In assay [3] the test system is Haemonchus contortus. Described as above. The assay is classed as in vivo. The following applies: 120 h, 15 mg/kg oral, read-out: Mean percentage reduction in worm burdens, H.contortus. How it is done:
as §1

The subject of assay [4] is Nippostrongylus brasiliensis eggs. The experiment in a line: In vitro activity against roundworms (egg hatching and larvae). Type of assay: cell-based. The note with it: 96 h, tested at 100, 10, 1 and 0.1 μg/ml, inhibited or delayed hatching of eggs, or killed, retarded growth or reduced activity of larvae during 4 days, read-out: M.I.C. (minimum inhibitory concentration). How it is done:
Compounds of formula I were tested at concentrations of 100 μg/ml, 10 μg/ml, 1 μg/ml and 0.1 μg/ml in small glass containers. If the compound was not soluble in water, a volatile organic medium, e.g. acetone, chloroform, ethanol or methanol was used. An amount of material appropriate for each final concentration was measured and placed in duplicate test containers and if an organic solvent was used it was allowed to evaporate completely. Nippostrongylus brasiliensis eggs were recovered by saturated saline centrifugal flotation from the faeces of rats heavily infected with third stage larvae six days previously. They were washed several times in water and suspended in water in a suitable concentration. From 25-50 eggs were placed in each container and the final volume was made up by the addition of a very dilute aqueous suspension of mouse faeces which served as the growth medium. The minimum inhibitory concentrations of each compound (M.I.C.), shown in the following Table V was the minimum concentration in μg/ml total liquid volume at which it inhibited or delayed hatching of eggs, or at which it killed, retarded growth or reduced activity of larvae during the 4 days after beginning the test.

Assay [5] relates to influenza virus type A2 /Hong Kong/5/68. Type of assay: in vivo. The following applies: mice, 250 mg/kg oral 3 hours before and 1 hour after infection; pooled lungs 24 hours after infection; greatest dilution producing agglutination.
Assay [6] has as its system Nippostrongylus brasiliensis. Briefly: Test 2: activity against roundworms in rats, treatment 24 hours after infection, worm counts 6 days after dosing. The assay is classed as in vivo. The note with it: rats; for inhibition in vivo at 1000 mg/kg / worm damage: Test 2, 1000 mg/kg oral. How it is done:
Test 2 -- Rats were infected with 100 Nippostrongylus brasiliensis larvae each, by the subcutaneous route. After 24 hours the rats were randomised and allotted to groups of 5 animals each, ready for treatment. Doses of the test compound were then administered to each group by the oral, subcutaneous and intraperitoneal routes respectively, one group of 10 animals being left untreated as a control. All the rats were killed for post-mortem worm counts 6 days after dosing. The activities, expressed in terms of the percentage reductions in mean worm load of the treated groups or damage to the worms compared with the untreated control group, are given below in Table I.

Assay [7] concerns Nippostrongylus brasiliensis. Briefly: Test 1: activity against roundworms in rats, treatment 6 days after infection (patent infection), worm counts 48 hours after treatment. Type of assay: in vivo. The protocol: Test 1 - Rats were infected with 100 Nippostrongylus brasiliensis larvae each, by the subcutaneous route. After 6 days, when the infection was patent, the rats were randomised and alloted to groups of 10 animals each, ready for treatment. One group was used for each dose level of the test compound and, in each experiment, one group was left untreated as a control. All the rats were killed for post-mortem worm counts 48 hours after treatment. The activity, expressed in terms of the percentage reduction in mean worm load of the treated group compared with the untreated group, is shown in Table I.

Assay [8] relates to Trichostrongylus colubriformis. Briefly: Activity against 4th larval stages in lambs, oral treatment (Table II). Type of assay: in vivo. The note with it: 100 mg/kg oral. The protocol:
(§2) i. 9 Worm-free lambs were each infected with H.contortus (approximately 9,000), T. axei (approximately 7,000) and T. colubriformis (approximately 12,000) infective larvae. After 7 days, 4 lambs were treated orally with 100 mg/kg animal body weight of the 2 test compounds, i.e. 2 lambs per compound, against the 4th larval stages of the worms. 23 Days after infection, all 9 lambs were killed for post-mortem worm counts and the burdens of each worm species in the 4 treated animals compared with those in the remaining 5 untreated control animals.

For assay [9], the system named is Trichostrongylus axei. The assay is described as above. Type of assay: in vivo. The following applies: 100 mg/kg oral. The protocol:
as §2

The subject of assay [10] is Haemonchus contortus. The description is as above. The assay is classed as in vivo. The note with it: 100 mg/kg oral. How it is done:
as §2

In assay [11] the test system is H. contortus. The experiment in a line: Activity in lambs by subcutaneous injection against 4th larval and adult stages. Type of assay: in vivo. The following applies: 75 mg/kg subcutaneous injection (18% w/v aqueous solution). How it is done:
(§3) b. 8 Worm-free lambs were each infected with H. contortus (approximately 7,000) and T. colubriformis ((approximately 15,000) infective larvae. After 7 days, 2 lambs were treated by subcutaneous injection of an 18% w/v aqueous solution at 75 mg/kg animal body weight of the test compound against the 4th larval stages of the worms. 28 Days after infection, 2 lambs were similarly treated against the adult stages of the worms. 35 Days after infection all 8 lambs were killed for post-mortem worm counts and the burdens of each worm species in the 4 treated animals compared with those in the remaining 4 untreated animals.

Assay [12] deals with T. colubriformis. Described as above. Type of assay: in vivo. The following applies: 75 mg/kg subcutaneous injection (18% w/v aqueous solution). How it is done:
as §3

Assay [13] concerns Trichinella spiralis. Briefly: Activity against roundworms in mice. The following applies: 100 mg/kg subcutaneous at 2 hours and 24 hours post infection, killed 5 days after second dose. Type of assay: in vivo. How it is done: Mice were infected with approximately 100 Trichinella spiralis larvae each, by the oral route. The mice were randomised and allotted to two groups of 4 animals each. Doses of 1-methoxycarbonyl-3-(2-dimethylaminoacetamidophenyl)thiourea hydrochloride were then administered to one group by the subcutaneous route at 2 hours post infection and again at 24 hours post infection, one group of 4 animals being left untreated as a control. The doses given to the mice were 100 mg/kg animal body weight. All the mice were killed for postmortem examination 5 days after the second dose. The activity, expressed in terms of the percentage reduction in mean worm load of the treated group compared with the control group, was 95%.

Where [14] appears, read: Nippostrongylus brasiliensis, 144 h, read-out: Percentage reduction in N.brasiliensis load.

For the molecule `CCCCc1ccc(NC(=O)OCC)c(NC(=S)NC(=O)OC)c1` [1-methoxycarbonyl-3-(5-n-butyl-2-ethoxycarbonylaminophenyl)thiourea], the values for the inhibition in vivo at 15 mg/kg in assay [1], in [2] and in [3] were 40.1%, 78.6% and 79.6%, respectively. Also, the MIC in assay [4] came out at 10 µg/mL (≈ 28.3 µM). The Haemagglutinin titre-treated animals in assay [5] was 1/64. Moreover, the inhibition in vivo at 1000 mg/kg in assay [6] (setting [14]) amounted to 96%. Further, the worm damage result in assay [6] is recorded as “worm damage”.
With `CCCCc1ccc(NC(=S)NC(=O)OC)c(N)c1` [1-methoxycarbonyl-3-(2-amino-4-n-butylphenyl)thiourea], the MIC in [4] came to 0.1 µg/mL (≈ 0.355 µM). Moreover, the inhibition in vivo at 500 mg/kg in [7] (Nippostrongylus brasiliensis, po, 48 h, Test 1, 500 mg/kg oral, read-out: Percentage reduction in N.brasiliensis load) is 75%. In addition, in assay [7] (Test 1, 500 mg/kg oral), the worm damage entry is reported as “worm damage”. Further, in assay [8], the “Mean percentage reduction in worm burdens, T.colubriformis” value is on record as 100%. Also, the “Mean percentage reduction in worm burdens, T.axei” value in assay [9] is 99.5%. The “Mean percentage reduction in worm burdens, H.contortus” value in [10] stood at 100%.
As to `COC(=O)NC(=S)Nc1ccccc1NC(=O)CN(C)C` [1-methoxycarbonyl-3-(2-dimethylaminoacetamidophenyl)thiourea hydrochloride], the inhibition in vivo at 15 mg/kg is 43.4% in assay [1], 78% in assay [2] and 60% in assay [3]. In addition, the MIC in assay [4] is 1 µg/mL. For the same molecule, the “Mean percentage reduction in worm burdens, H.contortus” value was 87.1% in [11] (4th larval stage) and 95.3% in assay [11] (adult stage). For the same molecule, the “Mean percentage reduction in worm burdens, T.colubriformis” value came out at 99.9% in assay [12] (4th larval stage) and 99.7% in [12] (adult stage). Also, the “percentage reduction in mean worm load” value in assay [13] worked out at 95%. The inhibition in vivo at 1000 mg/kg was determined as 100% in assay [6] (setting [14]) and 91% in [7] (Nippostrongylus brasiliensis, po, 48 h, Test 1, 1000 mg/kg oral, read-out: Percentage reduction in N.brasiliensis load). Moreover, in assay [6] (Nippostrongylus brasiliensis, ip, 144 h, Test 2, 50 mg/kg intraperitoneal, read-out: Percentage reduction in N.brasiliensis load), the inhibition in vivo at 50 mg/kg amounted to 89%. Also, in assay [6] (Nippostrongylus brasiliensis, ip, 144 h, Test 2, 100 mg/kg intraperitoneal, read-out: Percentage reduction in N.brasiliensis load), the inhibition in vivo at 100 mg/kg is 99%. Further, the inhibition in vivo at 250 mg/kg in assay [6] (Nippostrongylus brasiliensis, ip, 144 h, Test 2, 250 mg/kg intraperitoneal, read-out: Percentage reduction in N.brasiliensis load) came out at 96%; in assay [6] (Nippostrongylus brasiliensis, sc, 144 h, Test 2, 250 mg/kg subcutaneous, read-out: Percentage reduction in N.brasiliensis load) it was 99.5%. Moreover, in [6] (Nippostrongylus brasiliensis, sc, 144 h, Test 2, 60 mg/kg subcutaneous, read-out: Percentage reduction in N.brasiliensis load), the inhibition in vivo at 60 mg/kg was found to be 89.8%. Besides, in assay [6] (Nippostrongylus brasiliensis, sc, 144 h, Test 2, 500 mg/kg subcutaneous, read-out: Percentage reduction in N.brasiliensis load), the inhibition in vivo at 500 mg/kg came out at 99.5%.
With `CCCCc1ccc(NC(=S)NC(=O)OC)c(NC(C)=O)c1` [1-methoxycarbonyl-3-(2-acetamido-4-n-butylphenyl)thiourea], the figures for the inhibition in vivo at 15 mg/kg in assay [1], in [2] and in assay [3] were 6.7%, 66.9% and 76.7%, respectively. Besides, the MIC in assay [4] came out at 0.1 µg/mL (≈ 0.309 µM). Further, the inhibition in vivo at 1000 mg/kg in assay [6] (setting [14]) amounted to 98%. Also, the worm damage result was “worm damage” in [6] and “worm damage” in assay [7] (Test 1, 500 mg/kg oral). Besides, the “Mean percentage reduction in worm burdens, T.colubriformis” value in assay [8] was 100%. Further, the “Mean percentage reduction in worm burdens, T.axei” value in [9] was 99.5%. The “Mean percentage reduction in worm burdens, H.contortus” value in assay [10] came to 99.9%.

The record behind these values is US4005217A, “Treatment of helminth infections with substituted phenyl-thiourea derivatives” (May & Baker Limited, priority 1970, dated 1977).
